Test results from US20180250306A1, “ALDEHYDE CONJUGATES AND USES THEREOF” (ALDEYRA THERAPEUTICS, INC., priority 2015, published 2018).

Assays:
[1] = Consumption of 4HNE over time (HPLC, 254 nm)
Excerpt: 5 of 6 samples show consumption of 4HNE. One sample (2-(3-aminoquinolin-2-yl)propan-2-ol) overlaps 4HNE HPLC peak using current method. Best fit lines over this period give poorer fit to data than product formation data. Rate of 4HNE consumption can be used as an approximation of binding kinetics. […] The data were used to rank relatively each of the samples examined, including NS-2 but excluding 2-(3-aminoquinolin-2-yl)propan-2-ol.

[2] = Aldehyde adduct formation over time (product HPLC peak)
Description: It is not possible to conclude if this is the result of poor dissociation (from cyclodextrin) or poor interaction with the aldehyde. Best fit lines over this period give excellent fit to data. […] It can be used to relatively rank each of the samples examined, including NS2. The data were first evaluated over a 7 h time window.

[3] = test system: circulating cytokines; settings: LPS model, mouse; cited from earlier work
[4] = test system: SSADH null mice; assay: Eight-hour NS2 treatment (metabolite) study in wild type and SSADH null mice; format: in vivo
Excerpt: Mice were 22-23 days old on the day of treatment, and groups (n=3) were balanced for age and gender. […] Future studies in this model will encompass a dose-finding paradigm to ensure adequate target exposure; dose earlier in life; and increase group sizes.
The design of the study was as follows: • Treatment groups were balanced for date of birth, gender, and weight. • SSADH null mice were generated by crossing mice heterozygous for SSADH deficiency. Expected number of null progeny is 1 in 4. Seven SSADH null mice were generated from this breeding, of which three were assigned to group 3 and four were assigned to group 4.
• On the day of dosing, NS2 and vehicle were brought to room temperature. […] This working solution was prepared at room temperature, using aseptic technique in the animal dosing suite, and was used within one hour of preparation. • Dosing volume was ˜0.4 μL/g body weight for both mutant and wild-type subjects (note: the average body weight for the SSADH null mice is ˜4.9±0.9 g, and that of age-matched wild-type littermate is 10.2±0.9 g). DMSO total dose is weight normalized. • Leftover working solutions were discarded.
Organs were snap frozen in liquid nitrogen for biochemical analysis and stored at −80° C. • A terminal cardiac blood sample was obtained in a standard microtainer for serum collection. Serum was prepared by centrifugation for 10 minutes at […] (2500×g) and stored at −80° C. until analyses. […]
Plasma and tissue homogenates were shipped to the laboratory of Professor Gajja Salomons (VU Medical Center, Amsterdam, the Netherlands) on May 11, 2015. SSA, GHB and D2HG levels were assayed in the Salomons laboratory using the following published methods: 1) “Stable isotope dilution analysis of 4-hydroxybutyric acid: an accurate method for quantification in physiological fluids and the prenatal diagnosis of 4-hydroxybutyric aciduria,” Gibson et al., 1990, Biomed Environ Mass Spectrom. […]

[5] = rank from most effective (1) to least
[6] = SSADH null mice, 8 hours after single 10 mg/kg i.p.

## CC(C)(O)c1nc2ccc(Cl)cc2cc1N [NS2, 2-(3-amino-6-chloroquinolin-2-yl)propan-2-ol]
[1]; 23 h
  Gradient of 4HNE consumption: (Gradient −0.04,
[1]; first 7 h, analysis at 254 nm
  Gradient of 4HNE consumption: (Gradient −0.15,
[1]; [5]
  Consumption of 4HNE, ranking, 7 Hours: 1
[1]; rank from most effective (1) to least, ranks 1-4 essentially identical
  Consumption of 4HNE, ranking, 23 Hours: 3
[2]; 7 h time window
  Gradient of product HPLC peak increase (rate of adduct formation): (Gradient 2.22,
[2]; 23 h time window
  Gradient of product HPLC peak increase (rate of adduct formation): (Gradient 1.33,
[2]; [5]
  Formation of Product, ranking, 7 Hours: 2
  Formation of Product, ranking, 23 Hours: 2
[3]
  activation of IL-1β: significantly decreased
  activation of IL-17: significantly decreased
  activation of TGF-β: significantly decreased
  levels of the anti-inflammatory cytokine Interleukin 10 (IL-10): significantly increasing
[4]; [6]
  GHB and D-2-HG in liver: tendency for decrease
  change in levels of metabolites (GHB, SSA, D-2-HG): no statistically significant changes
[4]; mouse, in vivo, ip, 10 mg/kg
  tolerability: well-tolerated
